Numbered stars: 1 amine (or outer) side, 2 acyl side, 3 side chain; on linkers, the order of the positions; unused ones are H or OH. Bridge positions count the residues as written; N and C are the ends. Square brackets hold non-standard residues; d marks the D form. Peptide text beside a SMILES is read from it. * marks the point of attachment. C20 diacid = O=C(O)CCCCCCCCCCCCCCCCCCC(=O)*; γGlu = O=C(O)[C@H](CCC(=O)[*:2])N[*:1]; Hyp = O=C(O)[C@@H]1C[C@@H](O)CN1
Tests used:
hAM1 receptor = hAM1 receptor (Homo sapiens, UniProt O60895+Q16602); test: cAMP assay for in vitro receptor activation, hAM1-R; type: cell-based; details: cAMP assay, hAM1 receptor; read-out: hAM1R EC50
Method in brief: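 Monoclonal stable hAM1-overexpressing cells, thawed from frozen stock; 8000 cells/well in DPBS + 0.05% casein + 0.5 mM IBMX; read-out cAMP.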

hAMY3 receptor = biological target: T1, hAMY3 receptor (Homo sapiens, UniProt O60896+P30988); test: cAMP assay for in vitro receptor activation, hAMY3-R; type: cell-based; details: cAMP assay, hAMY3 receptor; read-out: hAMY3R EC50
T1 sequence (P30988 25-474): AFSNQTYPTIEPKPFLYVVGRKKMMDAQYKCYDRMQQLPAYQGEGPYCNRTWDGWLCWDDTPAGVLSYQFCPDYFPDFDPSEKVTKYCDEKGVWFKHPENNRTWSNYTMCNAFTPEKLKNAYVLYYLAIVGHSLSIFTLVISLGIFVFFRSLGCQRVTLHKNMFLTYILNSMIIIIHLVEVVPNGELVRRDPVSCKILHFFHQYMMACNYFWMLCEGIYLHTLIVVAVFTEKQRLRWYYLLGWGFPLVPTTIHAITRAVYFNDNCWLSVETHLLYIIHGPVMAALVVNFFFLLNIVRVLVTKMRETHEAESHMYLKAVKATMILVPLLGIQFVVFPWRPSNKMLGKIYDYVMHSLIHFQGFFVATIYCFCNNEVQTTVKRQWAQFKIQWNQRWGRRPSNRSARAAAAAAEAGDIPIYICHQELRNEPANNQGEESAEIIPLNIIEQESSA
T1 sequence (O60896 24-148 partner): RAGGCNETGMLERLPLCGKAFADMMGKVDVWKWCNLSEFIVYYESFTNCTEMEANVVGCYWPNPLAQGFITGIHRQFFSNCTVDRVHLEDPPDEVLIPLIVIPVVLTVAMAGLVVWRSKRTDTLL
Method in brief: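 Accumulated cAMP was detected by time-resolved FRET one hour after reagent addition. Beforehand, hAMY3-R-overexpressing monoclonal cells (2000/well, DPBS, 0.05% casein, 0.5 mM IBMX) received graded doses of compound for 30 min at room temperature; human amylin served as positive control.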

hAM1 receptor, sequence (Q16602 23-461): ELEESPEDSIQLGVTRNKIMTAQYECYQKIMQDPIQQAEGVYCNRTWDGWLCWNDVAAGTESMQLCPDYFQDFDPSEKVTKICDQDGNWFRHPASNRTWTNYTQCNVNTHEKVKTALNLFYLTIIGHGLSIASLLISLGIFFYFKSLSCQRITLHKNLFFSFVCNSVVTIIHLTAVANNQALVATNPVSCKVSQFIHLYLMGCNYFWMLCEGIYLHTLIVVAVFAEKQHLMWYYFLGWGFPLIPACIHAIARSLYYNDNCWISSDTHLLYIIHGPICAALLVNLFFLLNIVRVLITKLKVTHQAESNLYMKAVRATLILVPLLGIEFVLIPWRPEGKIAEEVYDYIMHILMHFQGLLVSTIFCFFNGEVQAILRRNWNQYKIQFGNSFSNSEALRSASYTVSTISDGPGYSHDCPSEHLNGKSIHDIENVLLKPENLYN
hAM1 receptor, sequence (O60895 43-175 partner): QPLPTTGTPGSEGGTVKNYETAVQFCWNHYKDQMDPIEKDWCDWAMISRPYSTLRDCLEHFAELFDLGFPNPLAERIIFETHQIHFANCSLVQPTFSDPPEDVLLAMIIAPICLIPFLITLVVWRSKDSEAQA

Row | Structure (SMILES) | EC50 (hAM1 receptor) [nM] | EC50 (hAMY3 receptor) [nM]
1 | CC[C@H](C)[C@H](NC(=O)[C@H](CCC(N)=O)NC(=O)[C@H](CC(N)=O)NC(=O)[C@H](C)NC(=O)[C@H](CC(C)C)NC(=O)[C@H](CCCNC(=N)N)NC(=O)[C@H](CCC(N)=O)NC(=O)[C@@H](NC(=O)[C@@H](NC(=O)[C@@H]1CSSC[C@H](NC(=O)[C@H](CCCCN)NC(=O)CC[C@H](NC(=O)CCCCCCCCCCCCCCCCCCC(=O)O)C(=O)O)C(=O)N[C@@H](CC(N)=O)C(=O)N[C@@H]([C@@H](C)O)C(=O)N[C@@H](C)C(=O)N[C@@H]([C@@H](C)O)C(=O)N1)[C@@H](C)O)C(C)C)C(=O)N[C@@H](Cc1ccc(O)cc1)C(=O)N[C@@H](CCC(N)=O)C(=O)N[C@@H](Cc1ccccc1)C(=O)N[C@H](C(=O)N[C@@H](CC(=O)O)C(=O)N[C@@H](CCCCN)C(=O)N[C@@H](CC(=O)O)C(=O)N[C@@H](CCCCN)C(=O)N[C@@H](CC(=O)O)C(=O)N[C@@H](CC(N)=O)C(=O)N[C@H](C(=O)N[C@@H](C)C(=O)N1CCC[C@H]1C(=O)N1CCC[C@H]1C(=O)N[C@H](C(=O)N[C@@H](CC(N)=O)C(=O)N[C@H](C(=O)NCC(=O)N[C@@H](CO)C(=O)N[C@@H](CC(N)=O)C(=O)NCC(=O)N1C[C@H](O)C[C@H]1C(N)=O)C(C)C)[C@@H](C)O)C(C)C)[C@@H](C)O [compound 21] ({C20 diacid-γGlu}-KCNTATCTVQRLANQIYQFTDKDKDNVAPPTNVGSNG[Hyp]-NH2; disulfide 2-7) | > 5000 | 0.008
2 | CC[C@H](C)[C@H](NC(=O)[C@H](C)NC(=O)CNC(=O)[C@H](Cc1ccccc1)NC(=O)[C@H](CC(N)=O)NC(=O)[C@H](CC(N)=O)NC(=O)[C@H](CO)NC(=O)[C@H](CO)NC(=O)[C@H](Cc1c[nH]cn1)NC(=O)[C@@H](NC(=O)[C@H](CC(C)C)NC(=O)[C@H](Cc1ccccc1)NC(=O)[C@H](CC(N)=O)NC(=O)[C@H](C)NC(=O)[C@H](CC(C)C)NC(=O)[C@H](CCCNC(=N)N)NC(=O)[C@H](CCC(N)=O)NC(=O)[C@@H](NC(=O)[C@H](C)NC(=O)[C@@H]1CSSC[C@H](NC(=O)[C@@H](N)CCCCN)C(=O)N[C@@H](CC(N)=O)C(=O)N[C@@H]([C@@H](C)O)C(=O)N[C@@H](C)C(=O)N[C@@H]([C@@H](C)O)C(=O)N1)[C@@H](C)O)C(C)C)C(=O)N[C@@H](CC(C)C)C(=O)N[C@@H](CO)C(=O)N[C@@H](CO)C(=O)N[C@H](C(=O)N[C@@H](CCCCN)C(=O)N[C@H](C(=O)NCC(=O)N[C@@H](CO)C(=O)N[C@@H](CC(N)=O)C(=O)NCC(=O)N[C@@H](Cc1ccc(O)cc1)C(N)=O)[C@@H](C)CC)[C@@H](C)O [compound 148] (H-KCNTATCATQRLANFLVHSSNNFGAILSSTKIGSNGY-NH2; disulfide 2-7; N-terminus assumed) | > 5000 | 0.04
3 | CC[C@H](C)[C@H](NC(=O)[C@H](CCC(N)=O)NC(=O)[C@H](Cc1c[nH]cn1)NC(=O)[C@H](C)NC(=O)[C@H](CC(C)C)NC(=O)[C@H](CCCNC(=N)N)NC(=O)[C@H](CCC(N)=O)NC(=O)[C@@H](NC(=O)[C@@H](NC(=O)[C@@H]1CSSC[C@H](NC(=O)[C@H](CCCCN)NC(=O)CC[C@H](NC(=O)CCCCCCCCCCCCCCCCCCC(=O)O)C(=O)O)C(=O)N[C@@H](CC(N)=O)C(=O)N[C@@H]([C@@H](C)O)C(=O)N[C@@H](CO)C(=O)N[C@@H]([C@@H](C)O)C(=O)N1)[C@@H](C)O)C(C)C)C(=O)N[C@@H](C)C(=O)N[C@@H](CCC(N)=O)C(=O)N[C@@H](Cc1ccccc1)C(=O)N[C@H](C(=O)N[C@@H](CC(=O)O)C(=O)N[C@@H](CCCCN)C(=O)N[C@@H](CC(=O)O)C(=O)N[C@@H](CCCCN)C(=O)N[C@@H](CC(=O)O)C(=O)N1CCC[C@H]1C(=O)N[C@H](C(=O)N[C@@H](C)C(=O)N1CCC[C@H]1C(=O)N1CCC[C@H]1C(=O)N[C@H](C(=O)N[C@@H](CC(N)=O)C(=O)N[C@H](C(=O)NCC(=O)N[C@@H](CO)C(=O)N[C@@H](CC(N)=O)C(=O)NCC(=O)N1C[C@H](O)C[C@H]1C(N)=O)C(C)C)[C@@H](C)O)C(C)C)[C@@H](C)O [compound 88] ({C20 diacid-γGlu}-KCNTSTCTVQRLAHQIAQFTDKDKDPVAPPTNVGSNG[Hyp]-NH2; disulfide 2-7) | > 5000 | 0.015

The remaining lines, values ahead:

Row | EC50 (hAM1 receptor) [nM] | EC50 (hAMY3 receptor) [nM] | Structure (SMILES)
4 | > 5000 | 0.018 | CC[C@H](C)[C@H](NC(=O)[C@H](CCC(N)=O)NC(=O)[C@H](Cc1c[nH]cn1)NC(=O)[C@H](C)NC(=O)[C@H](CC(C)C)NC(=O)[C@H](CCCNC(=N)N)NC(=O)[C@H](CCC(N)=O)NC(=O)[C@@H](NC(=O)[C@@H](NC(=O)[C@@H]1CSSC[C@H](NC(=O)[C@H](CCCCN)NC(=O)CC[C@H](NC(=O)CCCCCCCCCCCCCCCCCCC(=O)O)C(=O)O)C(=O)N[C@@H](CC(N)=O)C(=O)N[C@@H]([C@@H](C)O)C(=O)N[C@@H](C)C(=O)N[C@@H]([C@@H](C)O)C(=O)N1)[C@@H](C)O)C(C)C)C(=O)N[C@@H](C)C(=O)N[C@@H](CCC(N)=O)C(=O)N[C@@H](Cc1ccccc1)C(=O)N[C@@H](C)C(=O)N[C@@H](CC(=O)O)C(=O)N[C@@H](CCCCN)C(=O)N[C@@H](CC(=O)O)C(=O)N[C@@H](CCCCN)C(=O)N[C@@H](CC(=O)O)C(=O)N[C@@H](CC(N)=O)C(=O)N[C@H](C(=O)N[C@@H](C)C(=O)N1CCC[C@H]1C(=O)N1CCC[C@H]1C(=O)N[C@H](C(=O)N[C@@H](CC(N)=O)C(=O)N[C@H](C(=O)NCC(=O)N[C@@H](CO)C(=O)N[C@@H](CC(N)=O)C(=O)NCC(=O)N1C[C@H](O)C[C@H]1C(N)=O)C(C)C)[C@@H](C)O)C(C)C [compound 105] ({C20 diacid-γGlu}-KCNTATCTVQRLAHQIAQFADKDKDNVAPPTNVGSNG[Hyp]-NH2; disulfide 2-7)
5 | > 5000 | 0.021 | CC[C@H](C)[C@H](NC(=O)[C@H](CCC(N)=O)NC(=O)[C@H](Cc1c[nH]cn1)NC(=O)[C@H](C)NC(=O)[C@H](CC(C)C)NC(=O)[C@H](CCCNC(=N)N)NC(=O)[C@H](CC(=O)O)NC(=O)[C@@H](NC(=O)[C@@H](NC(=O)[C@@H]1CSSC[C@H](NC(=O)[C@H](CCCCN)NC(=O)CC[C@H](NC(=O)CCCCCCCCCCCCCCCCCCC(=O)O)C(=O)O)C(=O)N[C@@H](CC(N)=O)C(=O)N[C@@H]([C@@H](C)O)C(=O)N[C@@H](C)C(=O)N[C@@H]([C@@H](C)O)C(=O)N1)[C@@H](C)O)C(C)C)C(=O)N[C@@H](C)C(=O)N[C@@H](CCC(N)=O)C(=O)N[C@@H](Cc1ccccc1)C(=O)N[C@H](C(=O)N[C@@H](CC(=O)O)C(=O)N[C@@H](CCCCN)C(=O)N[C@@H](CC(=O)O)C(=O)N[C@@H](CCCCN)C(=O)N[C@@H](CC(=O)O)C(=O)N[C@@H](CC(N)=O)C(=O)N[C@H](C(=O)N[C@@H](C)C(=O)N1CCC[C@H]1C(=O)N1CCC[C@H]1C(=O)N[C@H](C(=O)N[C@@H](CC(N)=O)C(=O)N[C@H](C(=O)NCC(=O)N[C@@H](CO)C(=O)N[C@@H](CC(N)=O)C(=O)NCC(=O)N1C[C@H](O)C[C@H]1C(N)=O)C(C)C)[C@@H](C)O)C(C)C)[C@@H](C)O [compound 112] ({C20 diacid-γGlu}-KCNTATCTVDRLAHQIAQFTDKDKDNVAPPTNVGSNG[Hyp]-NH2; disulfide 2-7)

Reference: patent US12139520B2 (priority 2020, dated 2024)
